Test results taken from the supplement of paper PMC10307832.

Tests used:
Assay in all cases: relative viability (nuclei count vs DMSO), 5 days (fraction); higher = more cells survive
[1] = compound: CC(=O)Nc1cccc(-n2c(=O)n(C3CC3)c(=O)c3c(Nc4ccc(I)cc4F)n(C)c(=O)c(C)c32)c1 [Trametinib] + N=C(N)NC(=N)NCCc1ccccc1 [Phenformin] (partner 250 µM)
Method in brief: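 Relative viability divides the nuclei count in treated wells by that in vehicle wells. Lung cancer cell lines were seeded in 1536-well plates, dosed by pin tool the next day, and fixed and stained after 5 days in one step with final 0.05% Triton X-100, 1% formaldehyde and 1 ug/ml Hoechst. Dosing was a single drug or a fixed anchor-drug dose plus five library-drug doses (not always all listed) in √10 steps, and values are medians of duplicate plates imaged at 4×.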

[2] = compound: CN1C=C(C2=CC=CC=C21)/C=C\3/C4=C(C=CC=N4)NC3=O
Method in brief: (§1)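 After an overnight hold at 37 °C, lung cancer cell lines in 1536-well plates were pinned with five library-drug doses (not always all listed), each √10 from the next, on vehicle-anchored plates. The cells stayed 5 days without fresh medium, then a one-step fix, permeabilisation and Hoechst stain preceded 4× imaging and MetaXpress nuclear counts. A plate passed only with control CV under 25% and at least one doubling. Viability is the median, over plates, of treated-well nuclei relative to vehicle-well nuclei.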

[3] = compound: CC(=O)Nc1cccc(-n2c(=O)n(C3CC3)c(=O)c3c(Nc4ccc(I)cc4F)n(C)c(=O)c(C)c32)c1 [Trametinib]
Method in brief: as §1

| Cell Line | relative viability ([1]; first compound 0.0025 µM) | relative viability ([1]; first compound 0.007906 µM) | relative viability ([1]; first compound 0.025 µM) | relative viability ([1]; first compound 0.07906 µM) | relative viability ([1]; first compound 0.25 µM) | relative viability ([2]; 0.02 µM) | relative viability ([2]; 0.06325 µM) | relative viability ([2]; 0.2 µM) | relative viability ([2]; 0.6325 µM) | relative viability ([2]; 2 µM) | relative viability ([3]; 0.0025 µM) | relative viability ([3]; 0.007906 µM) | relative viability ([3]; 0.02 µM, anchor plate) | relative viability ([3]; 0.025 µM) | relative viability ([3]; 0.07906 µM) | relative viability ([3]; 0.25 µM) |
| --- | --- | --- | --- | --- | --- | --- | --- | --- | --- | --- | --- | --- | --- | --- | --- | --- |
| NCI-H358 | 0.201 | 0.189 | 0.146 | 0.124 | 0.121 | 0.907 | 0.931 | 0.916 | 0.891 | 0.938 | 0.643 | 0.472 | 0.137 | 0.328 | 0.27 | 0.259 |
| H3255 | 0.346 | 0.368 | 0.342 | 0.297 | 0.263 | 1.04 | 0.951 | 0.834 | 0.978 | 0.903 | 0.973 | 0.879 | 0.631 | 0.787 | 0.742 | 0.563 |
| NCI-H1563 | 0.637 | 0.636 | 0.676 | 0.597 | 0.59 | 1.08 | 1 | 0.99 | 1.05 | 0.992 | 0.983 | 0.782 | – | 0.952 | 0.938 | 0.723 |
| LCLC-103H | 0.319 | 0.349 | 0.318 | 0.269 | 0.307 | 0.963 | 0.933 | 0.976 | 0.98 | 0.959 | 0.92 | 0.869 | 0.672 | 0.814 | 0.697 | 0.685 |
| NCI-H2347 | 0.225 | 0.125 | 0.233 | 0.164 | 0.143 | 1.05 | 1.01 | 0.94 | 0.932 | 1.02 | 0.988 | 0.535 | 0.285 | 0.377 | 0.356 | 0.371 |
| LK-2 | 0.433 | 0.649 | 0.379 | 0.35 | 0.142 | – | 0.697 | 0.652 | 0.776 | 0.975 | 0.93 | 0.832 | 0.761 | 0.989 | 0.757 | 0.388 |
| NCI-H2342 | 0.49 | 0.549 | – | 0.403 | 0.56 | 0.938 | 0.963 | 0.955 | 0.878 | 0.906 | 0.958 | 0.915 | 0.847 | 0.554 | 0.749 | 0.855 |
| HCC-15 | 0.361 | 0.229 | 0.18 | 0.179 | 0.145 | 0.947 | 0.952 | 1.03 | 1.01 | 1.01 | 0.795 | 0.541 | 0.389 | 0.544 | 0.325 | 0.28 |
| SW 1573 | 0.29 | 0.279 | 0.255 | 0.156 | 0.15 | 1.07 | 0.968 | 0.994 | 1.05 | 0.971 | 0.875 | 0.716 | 0.615 | 0.631 | 0.583 | 0.485 |
| NCI-H838 | 0.515 | 0.509 | 0.281 | 0.369 | 0.351 | 0.82 | 0.859 | 0.914 | 0.837 | 0.909 | 0.873 | 0.855 | 0.527 | 0.615 | 0.763 | 0.594 |
| RERF-LC-KJ | 0.371 | 0.391 | 0.382 | 0.371 | 0.321 | 1 | 1.01 | 1.02 | 0.914 | 0.984 | 0.969 | 0.926 | 0.873 | 0.885 | 0.848 | 0.757 |
| ChaGo-K-1 | 0.413 | 0.444 | 0.492 | 0.414 | 0.317 | 0.991 | 1 | 0.784 | 1.02 | 0.996 | 0.999 | 0.921 | 0.917 | 0.951 | 0.861 | 0.764 |
| NCI-H441 | 0.744 | 0.836 | 0.501 | 0.561 | 0.252 | 1.19 | 0.935 | 1.08 | 1.01 | 1.02 | 0.959 | 0.908 | 0.522 | 0.667 | 0.605 | 0.246 |
| NCI-H2170 | 0.351 | 0.414 | 0.399 | 0.357 | 0.333 | 0.854 | 0.983 | 0.833 | 0.839 | 1.07 | 0.96 | 0.955 | 0.94 | – | 0.929 | 0.923 |
| PC-14 | 0.568 | 0.531 | 0.322 | 0.212 | 0.102 | 0.944 | 0.943 | 0.926 | 1.01 | 1.05 | 1.03 | 0.953 | 0.756 | 0.758 | 0.626 | 0.226 |
| NCI-H2009 | 0.394 | 0.302 | 0.231 | 0.213 | 0.215 | 0.975 | 0.994 | 1.02 | 1.05 | 1.05 | 0.864 | 0.647 | 0.297 | 0.384 | 0.355 | 0.331 |
| NCI-H1395 | 0.479 | 0.445 | 0.432 | 0.416 | 0.328 | 0.818 | 0.894 | 0.632 | 0.878 | 0.785 | 1.03 | 0.83 | 1.03 | 0.69 | 0.67 | 0.523 |
| NCI-H1437 | 0.258 | 0.205 | 0.23 | 0.201 | 0.206 | 1.06 | 0.998 | 0.882 | 1.05 | 1.04 | 0.959 | 0.742 | 0.535 | 0.478 | 0.388 | 0.361 |
